Measured values: patent US4046765A, “Dihydroquinoline derivatives of antioxidant activity and a process for the preparation thereof” (priority 1971, dated 1977)
Structures can show the parent of a compound that is named as a salt.

Columns and labels:
[1] = solubility; type: physicochemical
[2] = system: rats; settings: rat, in vivo
Description: (§1) Since the novel compounds are completely nontoxic, they can be used with great advantage in animal husbandry and in the food industry, as well as in therapy. On the basis of the investigations carried out on the acute and chronic toxicity of these new active agents, it can be stated that they are completely free of the disadvantages of the hitherto-known antioxidants mentioned above, first of all as regards their use in therapy.

[3] = system: rats; assay: chronic toxicity of XAX, continuous administration to rats; type: in vivo, rat
Description: as §1

[4] = system: serum cholesterol; assay: serum cholesterol lowering in rabbits treated with cholesterol; type: in vivo, rabbit; settings: 1 g. cholesterol per day, XAX 0.06 g./kg. daily, 70 or 105 days
Experimental: Due to this fact they can also be used for the prophylaxis and treatment of arteriosclerosis. This effect of the new substances was investigated on rabbits treated with 1 g. of cholesterol per day. The animals were treated for 70 or 105 days with daily doses of 0.06 g./kg. of XAX. […] Using the hitherto-known antioxidants, this very favorable and important effect could not be reached at all.

[5] = system: liver cirrhosis caused by carbon tetrachloride; assay: prophylactic activity against liver cirrhosis caused by carbon tetrachloride; type: in vivo
[6] = antioxidant effect on fish-meal samples, oxygen uptake in Warburg apparatus and peroxide number; settings: 40 g. fish meal + 0.04 g. antioxidant; for oxygen uptake (decrease of O2 pressure): 29° C., Warburg apparatus, control 19.5; for Peroxide Number: calculated for 1 g. of fish meal, after treatment with oxygen, control 7.83
Experimental: The antioxidant effect of the new substances shown in foodstuffs and nutriments was investigated on fish-meal samples. […] In these experiments the oxygen uptake of fish-meal samples containing the various antioxidants was determined in a Warburg apparatus at 29° C., and the results were compared with those measured on samples containing no antioxidant. The peroxide number of samples treated with oxygen was also determined.

[7] = system: malignant tumors; assay: appearance of malignant tumors in animals treated with minimum irradiation doses for a long period; type: in vivo; settings: versus irradiated untreated animals
Description: Another important and unexpected property of the new substances is that they exert radiosensibilizing effect. […] On the basis of this property, the new compounds can also be used for the potentiating of the effect of irradiation therapy.

[8] = 0.56 g./kg., longer period, animals; cited from earlier work
[9] = system: rats; settings: 0.50 g./kg., 14 days; cited from earlier work
[10] = system: encephalomalacia of poultries; settings: compared with EMQ; cited from earlier work
[11] = in vivo; cited from earlier work
[12] = known antioxidant; cited from earlier work
[13] = biological systems, foodstuff mixtures; cited from earlier work
[14] = 90 days, versus untreated animals

SMILES: CC1=CC(C)(C)Nc2ccc(Cc3ccc4c(c3)C(C)=CC(C)(C)N4)cc21 [Example 8, bis-(2,2,4-trimethyl-1,2-dihydroquinolyl-6)-methane]
- solubility in water and alcohol [1]: well soluble in water and alcohol

SMILES: CC1=CC(C)(C)Nc2ccc(Cc3ccc4c(c3)C(C)=CC(C)(C)N4)cc21 [sulfuric acid salt of XAX]
- solubility in water and alcohol [1]: soluble in water and alcohol

SMILES: CC1=CC(C)(C)Nc2ccc(Cc3ccc4c(c3)C(C)=CC(C)(C)N4)cc21 [Example 9, bis-(2,2,4-trimethyl-1,2-dihydroquinolyl-6)-methane-dihydrochloride]
- solubility in water and alcohol [1]: soluble in water and alcohol

SMILES: CC1=CC(C)(C)Nc2ccc(Cc3ccc4c(c3)C(C)=CC(C)(C)N4)cc21 [XAX, bis-(2,2,4-trimethyl-1,2-dihydroquinolyl-6)-methane]
- toxic symptoms [2]: no toxic symptoms
- weight gain and blood picture [3, 14]: Neither the weight gain nor the blood picture of the animals was harmfully affected
- weight gain of some organs [3, 14]: no excessive weight gain of some organs of the animals could be observed
- damaging of tissues or cells ([3]; daily 0.25 mg./kg., 3 weeks): no damaging of tissues or cells could be observed
- cholesterol level of the blood [4]: the cholesterol level of the blood decreased to a great extent
- prophylactic activity against liver cirrhosis [5]: great prophylactic activity
- oxygen uptake (decrease of O2 pressure) [6]: 11.5 mmHg
- Peroxide Number [6]: 1.54
- appearance of malignant tumors [7]: could be suppressed

SMILES: CCOc1ccc2c(c1)C(C)=CC(C)(C)N2 [EMQ, 6-ethoxy-2,2,4-trimethyl-1,2-dihydroquinoline]
- appetite [8]: may cause appetite lowering
- gain in weight [8]: lowers the gain in weight
- appetite [9]: the appetite of the animals was lowered
- size of the liver [9]: an increase in size of the liver was observed
- oxygen uptake (decrease of O2 pressure) [6]: 23.5 mmHg
- Peroxide Number [6]: 2.87

SMILES: Cc1cc(C(C)(C)C)c(O)c(C(C)(C)C)c1 [BHT]
- activity in encephalomalacia of poultries versus EMQ [10]: far lower activity than EMQ
- oxygen uptake (decrease of O2 pressure) [6]: 16.5 mmHg
- Peroxide Number [6]: 3.42
- teratogeneous effect (anophthalmia) [11]: the appearance of anophthalmia was observed, indicating that the compound exerts a teratogeneous effect

SMILES: c1ccc(Nc2ccc(Nc3ccccc3)cc2)cc1 [DPPD, N,N'-diphenyl-p-phenylenediamine]
- cancer-inducing effect [12]: cancer-inducing effect
- activity as antioxidant [13]: relatively low activity
